These results are taken from US4087613A, “1,3,5- Or 1,3,6-naphthalenetriyltris(sulfonylimino)aryl acids and salts” (American Cyanamid Company, priority 1977, dated 1978).

In test [1] the test system is complement system. Conditions: literature report; cited from earlier work.
For test [2], the system named is hereditary angioneurotic edema. The following applies: The New England Journal of Medicine, 286, 808-812 (1972); cited from earlier work.
For test [3], the target named is T1, activated human C1 (Homo sapiens, UniProt P09871).
T1 construct: fluid-phase human C2 substrate in presence of C4
The test is described as follows: Test, Code 026 (C1 inhibitor): protection of human C2 from activated human C1 and C4. The following applies: serial two-fold dilution assay; higher well number indicates higher activity. The class given is biochemical. The source says:
(§1) An active inhibitor protects C2 from C1 and C4; (ii) Test, Code 035 (C3-C9 inhibitor) -- This test determines the ability of the late components of human complement (C3-C9) to lyse EAC 142 in the presence of appropriate dilutions of the test compound. An active inhibitor protects EAC 142 from lysis by human C3-C9; (iii) Test, Code 036 (C-Shunt inhibitor) -- In this test human erythrocytes rendered fragile are lysed in autologous serum via the shunt pathway activated by cobra venom factor in the presence of appropriate dilutions of the test compound. Inhibition of the shunt pathway results in failure of lysis; (iv) Forssman Vasculitis Test -- Here, the well known complement dependent lesion, Forssman vasculitis, is produced in guinea pigs by intradermal injection of rabbit anti-Forssman antiserum. The lesion is measured in terms of diameter, edema and hemorrhage and the extent to which a combined index of these is inhibited by prior intraperitoneal injection of the test compound at 200 mg/kg is then reported, unless otherwise stated; (v) Forssman Shock Test -- Lethal shock is produced in guinea pigs by an i.v. injection of anti-Forssman antiserum and the harmonic mean death time of treated guinea pigs is compared with that of simultaneous controls; (vi) Complement Level Reduction Test -- In this test, the above dosed guinea pigs, or others, are bled for serum and the complement level is determined in undiluted serum by the capillary tube method of U.S. Pat. No. 3,876,376 and compared to undosed control guinea pigs; and (vii) Cap 50 Test -- Here, appropriate amounts of the test compound are added to a pool of guinea pig serum in vitro, after which the undiluted serum capillary tube assay referred to above is run. The concentration of compound inhibiting 50% is reported.
(§2) **Activity in wells a serial dilution assay. Higher well number indicates
(§3) higher activity. The serial dilutions are two-fold.

Test [4] concerns whole complement. The test is described as follows: Complement Level Reduction Test: whole complement in serum of dosed guinea pigs, capillary tube assay. The class given is in vivo. The following applies: 200 mg/kg.
Excerpt: as §1
With reference to Table I, guinea pigs weighing about 300 g were dosed intravenously (i.v.) or intraperitoneally (i.p.) with 200 mg/kg of the test compound dissolved in saline and adjusted to pH 7-8. […] The serum was tested for whole complement using the capillary tube assay. Percent inhibition was calculated by comparison with simultaneous controls. The results appear in Table I together with results of tests, code 026, 035, 036, Cap 50, % inhibition and Forssman shock.

Test [5] deals with late components of human complement (C3-C9). The test is described as follows: Test, Code 035 (C3-C9 inhibitor): lysis of EAC 142 by late components of human complement. Conditions: serial two-fold dilution assay; higher well number indicates higher activity. The class given is biochemical. Details: key: Negative.
Excerpt: as §1, §2, §3

Test [6] has as its system shunt pathway. The test is described as follows: Test, Code 036 (C-Shunt inhibitor): lysis of human erythrocytes via the shunt pathway activated by cobra venom factor. The class given is biochemical. Also noted: key: Negative. The following applies: serial two-fold dilution assay; higher well number indicates higher activity.
Excerpt: as §1, §2, §3

Counter-ions that a name gives are not always drawn.

T1 sequence (P09871 16-688): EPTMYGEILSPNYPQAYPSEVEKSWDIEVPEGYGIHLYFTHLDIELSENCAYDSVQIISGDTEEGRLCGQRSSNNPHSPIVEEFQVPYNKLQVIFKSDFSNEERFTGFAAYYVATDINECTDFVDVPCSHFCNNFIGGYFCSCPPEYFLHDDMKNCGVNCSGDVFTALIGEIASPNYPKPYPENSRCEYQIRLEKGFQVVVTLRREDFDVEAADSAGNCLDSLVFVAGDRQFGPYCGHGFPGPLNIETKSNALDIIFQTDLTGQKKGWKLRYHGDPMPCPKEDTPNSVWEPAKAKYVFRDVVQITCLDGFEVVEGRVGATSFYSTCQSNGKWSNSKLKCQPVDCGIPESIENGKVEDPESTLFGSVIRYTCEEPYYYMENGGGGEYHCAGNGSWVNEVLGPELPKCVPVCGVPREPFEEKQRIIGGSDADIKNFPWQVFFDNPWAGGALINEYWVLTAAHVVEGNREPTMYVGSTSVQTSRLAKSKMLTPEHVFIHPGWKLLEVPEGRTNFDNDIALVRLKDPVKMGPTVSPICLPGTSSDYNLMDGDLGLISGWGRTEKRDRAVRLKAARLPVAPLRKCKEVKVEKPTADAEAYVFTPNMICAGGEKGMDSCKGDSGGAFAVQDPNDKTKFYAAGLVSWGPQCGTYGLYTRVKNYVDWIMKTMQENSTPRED
T1 sequence (P00736 18-705 partner): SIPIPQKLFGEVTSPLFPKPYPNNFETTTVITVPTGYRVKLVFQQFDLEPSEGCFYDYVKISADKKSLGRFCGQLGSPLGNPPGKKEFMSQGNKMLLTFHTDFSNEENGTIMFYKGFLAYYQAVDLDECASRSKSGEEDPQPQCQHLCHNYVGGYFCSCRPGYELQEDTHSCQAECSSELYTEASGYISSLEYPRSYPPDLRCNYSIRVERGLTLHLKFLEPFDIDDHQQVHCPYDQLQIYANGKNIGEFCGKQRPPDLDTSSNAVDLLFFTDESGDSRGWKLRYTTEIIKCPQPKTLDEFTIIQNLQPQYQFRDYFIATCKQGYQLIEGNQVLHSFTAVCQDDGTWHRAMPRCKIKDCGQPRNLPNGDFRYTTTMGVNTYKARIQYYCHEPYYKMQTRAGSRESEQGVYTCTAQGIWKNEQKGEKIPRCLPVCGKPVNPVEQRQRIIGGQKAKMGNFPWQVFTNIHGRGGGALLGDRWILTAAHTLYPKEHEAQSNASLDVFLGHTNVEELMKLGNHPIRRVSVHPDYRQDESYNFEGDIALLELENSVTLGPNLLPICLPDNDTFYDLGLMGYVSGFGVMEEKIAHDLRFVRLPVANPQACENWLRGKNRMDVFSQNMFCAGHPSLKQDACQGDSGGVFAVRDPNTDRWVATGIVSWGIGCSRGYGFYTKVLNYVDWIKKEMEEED
T1 sequence (P02745 23-245 partner): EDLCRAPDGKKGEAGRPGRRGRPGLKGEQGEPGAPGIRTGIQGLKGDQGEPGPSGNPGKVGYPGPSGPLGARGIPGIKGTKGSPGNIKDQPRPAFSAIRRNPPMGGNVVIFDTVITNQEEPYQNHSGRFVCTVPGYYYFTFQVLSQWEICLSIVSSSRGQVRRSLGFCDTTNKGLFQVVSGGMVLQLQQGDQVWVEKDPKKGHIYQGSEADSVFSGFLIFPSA
T1 sequence (P02746 28-253 partner): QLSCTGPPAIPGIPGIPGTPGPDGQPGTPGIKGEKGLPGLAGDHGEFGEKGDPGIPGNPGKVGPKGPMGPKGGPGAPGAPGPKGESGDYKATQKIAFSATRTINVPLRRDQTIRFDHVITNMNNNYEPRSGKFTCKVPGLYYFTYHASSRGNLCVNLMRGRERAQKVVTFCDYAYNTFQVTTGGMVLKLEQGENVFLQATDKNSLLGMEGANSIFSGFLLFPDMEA
T1 sequence (P02747 29-245 partner): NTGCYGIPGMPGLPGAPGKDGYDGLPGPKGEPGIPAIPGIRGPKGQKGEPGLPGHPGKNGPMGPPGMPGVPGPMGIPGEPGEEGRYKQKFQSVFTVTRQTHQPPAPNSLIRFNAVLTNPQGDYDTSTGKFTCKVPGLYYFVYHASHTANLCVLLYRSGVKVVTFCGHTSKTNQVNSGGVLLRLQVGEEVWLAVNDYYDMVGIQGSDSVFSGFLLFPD

For the compound “8-(3-benzamido-4-methylbenzamido)naphthalene-1,3,5-trisulfonic acid [Suramin]”, the “anticomplementary / complement inhibiting effect” value in test [1] is “competitive inhibitor of the complement system”. Besides, in test [2], the “use in the treatment of hereditary angioneurotic edema” value (“use in the treatment” for short) is reported as “used with success”.

Regarding `O=C([O-])c1cc(NS(=O)(=O)c2ccc3c(S(=O)(=O)Nc4cc(C(=O)[O-])c(C(=O)[O-])c(C(=O)[O-])c4)cc(S(=O)(=O)Nc4cc(C(=O)[O-])c(C(=O)[O-])c(C(=O)[O-])c4)cc3c2)cc(C(=O)[O-])c1C(=O)[O-].[Na+].[Na+].[Na+].[Na+].[Na+].[Na+].[Na+].[Na+].[Na+]` [5,5',5"-[1,3,6-Naphthalenetriyltris(sulfonylimino)]tri-1,2,3-benzenetricarboxylic acid nonasodium salt], in test [3], the “C1 026 Wells” value is on record as “+8 wells”. Moreover, in test [4], the “In Vivo Activity (Guinea Pig) % Inhibition, Intraperitoneal, 30 minutes” value is on record as -63%; the “In Vivo Activity (Guinea Pig) % Inhibition, Intraperitoneal, 60 minutes” value is recorded as -71%; the “In Vivo Activity (Guinea Pig) % Inhibition, Intraperitoneal, 120 minutes” value is -71%.

Consider `O=C([O-])c1cccc(NS(=O)(=O)c2ccc3c(S(=O)(=O)Nc4cccc(C(=O)[O-])c4)cc(S(=O)(=O)Nc4cccc(C(=O)[O-])c4)cc3c2)c1.[Na+].[Na+].[Na+]` [3,3',3"-[1,3,6-Naphthalenetriyltris(sulfonylimino)]tribenzoic acid trisodium salt], for which the “C1 026 Wells” value in test [3] is reported as “+3 wells”. In addition, the “C-Late 035 Wells” value in test [5] is “N”. For the same compound, the “Shunt Inhibition 036 Wells” value in test [6] is recorded as “N”.

For the compound `O=C([O-])c1ccc(NS(=O)(=O)c2ccc3c(S(=O)(=O)Nc4ccc(C(=O)[O-])cc4)cc(S(=O)(=O)Nc4ccc(C(=O)[O-])cc4)cc3c2)cc1.[Na+].[Na+].[Na+]` [4,4',4"-[1,3,6-Naphthalenetriyltris(sulfonylimino)]tribenzoic acid trisodium salt], the “C-Late 035 Wells” value in test [5] is “N”. For the same compound, the “Shunt Inhibition 036 Wells” value in test [6] is given as “N”.

For `O=C(O)c1cc(NS(=O)(=O)c2ccc3c(S(=O)(=O)Nc4cc(C(=O)O)c(O)c(C(=O)O)c4)cc(S(=O)(=O)Nc4cc(C(=O)O)c(O)c(C(=O)O)c4)cc3c2)cc(C(=O)O)c1O` [5,5',5"-[1,3,6-Naphthalenetriyltris(sulfonylimino)]-tris[2-hydroxyisophthalic acid]], in test [3], the “C1 026 Wells” value is reported as “+5 wells”. In addition, the “C-Late 035 Wells” value in test [5] is “+1 wells”. The “Shunt Inhibition 036 Wells” value in test [6] is given as “+4 wells”. In test [4], the “In Vivo Activity (Guinea Pig) % Inhibition, Intraperitoneal, 30 minutes” value was -69%; the “In Vivo Activity (Guinea Pig) % Inhibition, Intraperitoneal, 60 minutes” value is recorded as -59%; the “In Vivo Activity (Guinea Pig) % Inhibition, Intraperitoneal, 120 minutes” value was -58%.

On to `O=C([O-])c1cc(NS(=O)(=O)c2ccc3c(S(=O)(=O)Nc4cc(C(=O)[O-])cc(C(=O)[O-])c4)cc(S(=O)(=O)Nc4cc(C(=O)[O-])cc(C(=O)[O-])c4)cc3c2)cc(C(=O)[O-])c1.[Na+].[Na+].[Na+].[Na+].[Na+].[Na+]` [5,5',5"-[1,3,6-Naphthalenetriyltris(sulfonylimino)]triisophthalic acid hexasodium salt], for which the “C-Late 035 Wells” value in test [5] is on record as “N”. For the same compound, in test [4], the “In Vivo Activity (Guinea Pig) % Inhibition, Intraperitoneal, 30 minutes” value was -67%; the “In Vivo Activity (Guinea Pig) % Inhibition, Intraperitoneal, 60 minutes” value is listed as -79%; the “In Vivo Activity (Guinea Pig) % Inhibition, Intraperitoneal, 120 minutes” value is reported as -84%.

For `O=C(O)c1cc(NS(=O)(=O)c2ccc3c(S(=O)(=O)Nc4ccc(O)c(C(=O)O)c4)cc(S(=O)(=O)Nc4ccc(O)c(C(=O)O)c4)cc3c2)ccc1O` [3,3',3"-[1,3,6-Naphthalenetriyltris(sulfonylimino)]tris[6-hydroxybenzoic acid]], the “C1 026 Wells” value in test [3] was “+1 wells”. Also, in test [5], the “C-Late 035 Wells” value is “N”. Moreover, in test [6], the “Shunt Inhibition 036 Wells” value is reported as “N”.

With `Nc1ccc2cc(S(=O)(=O)O)cc(O)c2c1N=Nc1ccc(NC(=O)Nc2ccc(N=Nc3c(N)ccc4cc(S(=O)(=O)O)cc(O)c34)c(S(=O)(=O)O)c2)cc1S(=O)(=O)O` [chlorazol fast pink, 3,3'-ureylenebis-[6-(2-amino-8-hydroxy-6-sulfo-1-naphthylazo)]benzenesulfonic acid, tetrasodium salt], the “anticomplementary / complement inhibiting effect” value in test [1] is “anticomplementary effect”.

As to `CN(c1cc(C(=O)O)cc(C(=O)O)c1)S(=O)(=O)c1ccc2c(S(=O)(=O)N(C)c3cc(C(=O)O)cc(C(=O)O)c3)cc(S(=O)(=O)N(C)c3cc(C(=O)O)cc(C(=O)O)c3)cc2c1` [5,5',5"-[1,3,6-Naphthalenetriyltris(sulfonylmethylimino)]triisophthalic acid hexasodium salt], in test [3], the “C1 026 Wells” value was “+3 wells”. Further, the “C-Late 035 Wells” value in test [5] was “N”. Moreover, in test [6], the “Shunt Inhibition 036 Wells” value was “N”.

heparin: the “anticomplementary / complement inhibiting effect” value in test [1] is listed as “anticomplementary effect”.

Turning to `NC[C@H]1CC[C@H](C(=O)O)CC1` [tranexamic acid], the “use in the treatment” value in test [2] was “used with success”.

Turning to `NCCCCCC(=O)O` [epsilon-aminocaproic acid], in test [2], the “use in the treatment” value is recorded as “used with success”.

On to `O=C(O)c1cc(NS(=O)(=O)c2ccc3c(S(=O)(=O)Nc4cc(C(=O)O)cc(C(=O)O)c4)cc(S(=O)(=O)Nc4cc(C(=O)O)cc(C(=O)O)c4)cc3c2)cc(C(=O)O)c1` [5,5',5"-[1,3,6-Naphthalenetriyltris(sulfonyliminol)]triisophthalic acid], for which the “C1 026 Wells” value in test [3] is “+6 wells”. Moreover, the “C-Late 035 Wells” value in test [5] is given as “N”. Also, the “Shunt Inhibition 036 Wells” value in test [6] is reported as “+2 wells”. In test [4], the “In Vivo Activity (Guinea Pig) % Inhibition, Intraperitoneal, 30 minutes” value is -84%; the “In Vivo Activity (Guinea Pig) % Inhibition, Intraperitoneal, 60 minutes” value is -88%; the “In Vivo Activity (Guinea Pig) % Inhibition, Intraperitoneal, 120 minutes” value is -96%.
